In this experiment the target is T1, human mGluR4 (Homo sapiens, UniProt Q14833).
T1 construct: expressed in transfected cells; host or cells: Chinese Hamster Ovary (CHO) cells
Description: human mGluR4 potentiation assay, CHO cells, Fluo-4 calcium fluorescence, agonist EC20. Type of experiment: cell-based. As to conditions: for Emax: CHO, maximum extent of potentiation, human mGluR4, read-out: GluMax; for EC50: potentiation of human mGluR4 response to EC20 agonist, read-out: hEC50. As to the method:
The disclosed compounds and compositions can be evaluated for their ability to act as a potentiator of metabotropic glutamate receptor activity, in particular mGluR4 activity, by any suitable known methodology known in the art. For example, Chinese Hamster Ovary (CHO) cells transfected with human mGluR4 or HEK cells co-transfected with rat mGluR4 and the G-protein regulated Inwardly Rectifying Potassium channel (GIRK) were plated in clear bottom assay plates for assay in a Hamamatsu FDSS Fluorometric Plate Reader. The cells were loaded with either the Ca2+-sensitive fluorescent dye Fluo-4 or the thallium responsive dye BTC, AM and the plates were washed and placed into a suitable kinetic plate reader. For human mGluR4 assays, a fluorescence baseline was established for 3-5 seconds, the disclosed compounds were then added to the cells, and the response in cells was measured. Approximately two and a half minutes later, a concentration of mGluR4 agonist (e.g. glutamate or L-AP4) eliciting approximately 20% (EC20) of the maximal agonist response was added to the cells, and the response was measured. Two minutes later, a concentration of mGluR4 agonist (e.g. glutamate or L-AP4) eliciting 80% (EC80) of the maximal agonist response was added to the cells, and the response was measured. For rat mGluR4/GIRK experiments, a baseline was established for approximately five seconds, disclosed compounds were added, and either an EC20 or EC80 concentration of agonist was added approximately two and one half minutes later. Potentiation of the agonist response of mGluR4 by the disclosed compounds was observed as an increase in response to the EC20 concentration of agonist in the presence of compound compared to the response to agonist in the absence of compound. Similarly, antagonism of the agonist response of mGluR4 by the disclosed compounds was observed as a decrease in response to the EC80 concentration of agonist in the presence of compound compared to the response to agonist in the absence of compound.
The above described assay operated in two modes. In the first mode, a range of concentrations of the disclosed compounds are added to cells, followed by a single fixed concentration of agonist. If the compound acts as a potentiatior, an EC50 value for potentiation and a maximum extent of potentiation by the compound at this concentration of agonist is determined by non-linear curve fitting. If the compound acts as a noncompetitive antagonist, an IC50 value is determined by non-linear curve fitting. In the second mode, several fixed concentrations of the disclosed compounds are added to various wells on a plate, followed by a range in concentrations of agonist for each concentration of disclosed compound. The EC50 values for the agonist at each concentration of compound are determined by non-linear curve fitting. A decrease in the EC50 value of the agonist with increasing concentrations of the sample compound (a leftward shift of the agonist concentration-response curve) is an indication of the degree of mGluR4 potentiation at a given concentration of the sample compound. A decrease in the maximal response of the agonist with increasing concentrations of the sample compounds, with or without a rightward shift in agonist potency, is an indication of the degree of noncompetitive antagonism at mGluR4. The second mode also indicates whether the sample compounds also affect the maximum response to mGluR4 to agonists.

Here are results for 28 molecules from US20120184556A1, “SUBSTITUTED ENZOIMIDAZOLESULFONAMIDES AND SUBSTITUTED INDOLESULFONAMIDES AS MGLUR4 POTENTIATORS” (priority 2009, published 2012).

Each structure is given as a SMILES string. Where a name gives a salt, the structure may show the parent alone. Where only a bound is given, the exact number is not on record here.

T1 sequence (Q14833 33-912): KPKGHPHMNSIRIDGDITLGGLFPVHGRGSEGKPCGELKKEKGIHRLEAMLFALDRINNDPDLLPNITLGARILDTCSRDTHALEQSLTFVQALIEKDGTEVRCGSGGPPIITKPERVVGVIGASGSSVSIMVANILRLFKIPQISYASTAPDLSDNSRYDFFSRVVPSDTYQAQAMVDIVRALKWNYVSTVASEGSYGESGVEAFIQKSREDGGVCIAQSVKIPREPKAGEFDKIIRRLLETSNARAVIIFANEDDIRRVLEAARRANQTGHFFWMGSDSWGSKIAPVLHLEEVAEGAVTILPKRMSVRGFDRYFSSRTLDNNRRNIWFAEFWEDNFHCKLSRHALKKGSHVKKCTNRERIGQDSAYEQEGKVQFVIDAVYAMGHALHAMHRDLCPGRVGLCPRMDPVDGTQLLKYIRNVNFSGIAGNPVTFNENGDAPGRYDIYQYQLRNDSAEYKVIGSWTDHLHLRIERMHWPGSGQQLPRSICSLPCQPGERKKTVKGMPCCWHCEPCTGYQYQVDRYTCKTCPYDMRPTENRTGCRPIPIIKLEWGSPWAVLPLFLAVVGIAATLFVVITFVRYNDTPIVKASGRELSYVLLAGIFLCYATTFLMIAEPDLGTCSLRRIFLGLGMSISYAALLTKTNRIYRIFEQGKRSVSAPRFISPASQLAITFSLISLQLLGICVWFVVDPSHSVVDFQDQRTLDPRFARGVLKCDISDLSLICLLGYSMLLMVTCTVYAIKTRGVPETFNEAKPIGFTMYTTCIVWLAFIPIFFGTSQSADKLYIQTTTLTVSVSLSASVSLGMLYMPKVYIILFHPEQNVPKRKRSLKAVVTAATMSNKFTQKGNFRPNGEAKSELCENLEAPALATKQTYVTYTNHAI

Turning to `O=S(=O)(Nc1c(F)cccc1F)c1ccc2[nH]c(-c3ccccc3)nc2c1` [Example 28, N-(2,6-difluorophenyl)-2-phenyl-1H-benzo[d]imidazole-5-sulfonamide], the Emax came to 38% and the EC50 amounted to 318 nM.

Turning to `O=S(=O)(Nc1ccc(F)cc1F)c1ccc2[nH]c(-c3cccc(F)n3)nc2c1` [Example 52, N-(2,4-difluorophenyl)-2-(6-fluoropyridin-2-yl)-1H-benzo[d]imidazole-5-sulfonamide], the Emax came out at 226% and the EC50 was 140 nM.

As for `O=S(=O)(Nc1ccc(F)cc1F)c1ccc2[nH]c(-c3nccs3)nc2c1` [Example 47, N-(2,4-difluorophenyl)-2-(thiazol-2-yl)-1H-benzo[d]imidazole-5-sulfonamide], the Emax turned out to be 147% and the EC50 is 709 nM.

Consider `O=S(=O)(Nc1ccccc1F)c1ccc2[nH]c(-c3ccccn3)nc2c1` [Example 33, N-(2-fluorophenyl)-2-(pyridin-2-yl)-1H-benzo[d]imidazole-5-sulfonamide], for which the Emax amounted to 246% and the EC50 worked out at 186 nM.

`O=S(=O)(Nc1ccccc1Cl)c1ccc2[nH]c(-c3cnccn3)nc2c1` [Example 7, N-(2-Chlorophenyl)-2-(pyrazin-2-yl)-1H-benzo[d]imidazole-5-sulfonamide]: the Emax is 149% and the EC50 is 1490 nM.

With `O=S(=O)(Nc1ccccc1Cl)c1ccc2[nH]c(-c3ccsc3)nc2c1` [Example 6, N-(2-Chlorophenyl)-2-(thiophen-3-yl)-1H-benzo[d]imidazole-5-sulfonamide], the Emax was determined as 111% and the EC50 was 361 nM.

Take `CN1CCCCC1c1nc2cc(S(=O)(=O)Nc3ccccc3Cl)ccc2[nH]1` (centres unmarked) [Example 53, N-(2-chlorophenyl)-2-(1-methylpiperidin-2-yl)-1H-benzo[d]imidazole-5-sulfonamide]: the Emax was 59% and the EC50 was over 10000 nM.

For the molecule `O=S(=O)(Nc1ccccc1Cl)c1ccc2[nH]c(-c3nccs3)nc2c1` [Example 14, N-(2-Chlorophenyl)-2-(thiazol-2-yl)-1H-benzo[d]imidazole-5-sulfonamide], the Emax was found to be 194% and the EC50 turned out to be 770 nM.

Consider `Cn1ccnc1-c1nc2cc(S(=O)(=O)Nc3ccccc3Cl)ccc2[nH]1` [Example 41, N-(2-chlorophenyl)-2-(1-methyl-1H-imidazol-2-yl)-1H-benzo[d]imidazole-5-sulfonamide], for which the Emax was 83% and the EC50 amounted to 9470 nM.

As to `Cc1ccc(-c2nc3cc(S(=O)(=O)Nc4ccccc4Cl)ccc3[nH]2)o1` [Example 29, N-(2-chlorophenyl)-2-(5-methylfuran-2-yl)-1H-benzo[d]imidazole-5-sulfonamide], the Emax is 52% and the EC50 was 76 nM.

As for `O=S(=O)(Nc1ccc(F)cc1F)c1ccc2[nH]c(-c3ccsc3)nc2c1` [Example 42, N-(2,4-difluorophenyl)-2-(thiophen-3-yl)-1H-benzo[d]imidazole-5-sulfonamide], the Emax was 50% and the EC50 turned out to be 226 nM.

With `O=S(=O)(Nc1ccccc1Cl)c1ccc2[nH]c(-c3ncc[nH]3)nc2c1` [Example 27, N-(2-chlorophenyl)-2-(1H-imidazol-2-yl)-1H-benzo[d]imidazole-5-sulfonamide], the Emax came to 69% and the EC50 amounted to 12800 nM.

For `O=S(=O)(Nc1ccccc1F)c1ccc2[nH]c(-c3nccs3)nc2c1` [Example 40, N-(2-fluorophenyl)-2-(thiazol-2-yl)-1H-benzo[d]imidazole-5-sulfonamide], the Emax came to 222% and the EC50 amounted to 756 nM.

As to `O=S(=O)(Nc1ccccc1Cl)c1ccc2[nH]c(-c3ccccc3C(F)(F)F)nc2c1` [Example 23, N-(2-chlorophenyl)-2-(2-(trifluoromethyl)phenyl)-1H-benzo[d]imidazole-5-sulfonamide], the Emax worked out at 36% and the EC50 came to 9440 nM.

As to `O=S(=O)(Nc1ccccc1Cl)c1ccc2[nH]c(-c3c(F)cccc3Cl)nc2c1` [Example 22, 2-(2-chloro-6-fluorophenyl)-N-(2-chlorophenyl)-1H-benzo[d]imidazole-5-sulfonamide], the Emax worked out at 59% and the EC50 was determined as 5750 nM.

Regarding `O=S(=O)(Nc1ccccc1Cl)c1ccc2[nH]c(-c3ccccc3)nc2c1` [Example 2, N-(2-Chlorophenyl)-2-phenyl-1H-benzo[d]imidazole-5-sulfonamide TFA salt], the Emax was found to be 77% and the EC50 amounted to 353 nM.

Take `O=S(=O)(Nc1ccccc1Cl)c1ccc2[nH]c(C3CCCCC3)nc2c1` [Example 4, N-(2-Chlorophenyl)-2-cyclohexyl-1H-benzo[d]imidazole-5-sulfonamide]: the Emax came out at 141% and the EC50 is 1760 nM.

Turning to `O=S(=O)(Nc1cccnc1)c1ccc2[nH]c(-c3ccccc3)nc2c1` [Example 16, 2-Phenyl-N-(pyridin-3-yl)-1H-benzo[d]imidazole-5-sulfonamide bis TFA salt], the Emax was 41% and the EC50 came out at 5950 nM.

With `O=S(=O)(Nc1ccccc1Cl)c1ccc2[nH]c(-c3ccncn3)nc2c1` [Example 11, N-(2-Chlorophenyl)-2-(pyrimidin-4-yl)-1H-benzo[d]imidazole-5-sulfonamide], the Emax is 148% and the EC50 came to 2830 nM.

Take `CN(c1ccccc1F)S(=O)(=O)c1ccc2[nH]c(-c3ccccn3)nc2c1` [Example 50, N-(2-fluorophenyl)-N-methyl-2-(pyridin-2-yl)-1H-benzo[d]imidazole-5-sulfonamide]: the Emax was 61% and the EC50 is 1110 nM.

Regarding `O=S(=O)(Nc1ccccc1Cl)c1ccc2[nH]c(-c3ccco3)nc2c1` [Example 25, N-(2-chlorophenyl)-2-(furan-2-yl)-1H-benzo[d]imidazole-5-sulfonamide], the Emax was found to be 96% and the EC50 was 747 nM.

Consider `O=S(=O)(Nc1ccccc1Cl)c1ccc2[nH]c(C3CCCCO3)nc2c1` (centres unmarked) [Example 46, N-(2-chlorophenyl)-2-(tetrahydro-2H-pyran-2-yl)-1H-benzo[d]imidazole-5-sulfonamide], for which the Emax was determined as 112% and the EC50 came to 2350 nM.

As to `O=S(=O)(Nc1ccccc1Br)c1ccc2[nH]c(-c3ccccc3)nc2c1` [Example 1, N-(2-Bromophenyl)-2-phenyl-1H-benzo[d]imidazole-5-sulfonamide], the Emax amounted to 60% and the EC50 is 499 nM.

For the molecule `O=S(=O)(Nc1ccccc1Cl)c1ccc2[nH]c(-c3cccs3)nc2c1` [Example 9, N-(2-Chlorophenyl)-2-(thiophen-2-yl)-1H-benzo[d]imidazole-5-sulfonamide TFA salt], the Emax amounted to 103% and the EC50 is 318 nM.

Turning to `O=S(=O)(Nc1ccccc1Cl)c1ccc2[nH]c(-c3ccc(C(F)(F)F)o3)nc2c1` [Example 26, N-(2-chlorophenyl)-2-(5-(trifluoromethyl)furan-2-yl)-1H-benzo[d]imidazole-5-sulfonamide], the Emax is 68% and the EC50 was determined as 328 nM.

For the molecule `O=S(=O)(Nc1ccccc1F)c1ccc2[nH]c(-c3ccsc3)nc2c1` [Example 38, N-(2-fluorophenyl)-2-(thiophen-3-yl)-1H-benzo[d]imidazole-5-sulfonamide], the Emax came out at 42% and the EC50 turned out to be 369 nM.

For `O=S(=O)(Nc1ccccc1Cl)c1ccc2[nH]c(-c3cscn3)nc2c1` [Example 10, N-(2-Chlorophenyl)-2-(thiazol-4-yl)-1H-benzo[d]imidazole-5-sulfonamide bis TFA salt], the Emax was determined as 169% and the EC50 was found to be 310 nM.

As to `O=S(=O)(NC1CCCC1)c1ccc2[nH]c(-c3ccccc3)nc2c1` [Example 18, N-Cyclopentyl-2-phenyl-1H-benzo[d]imidazole-5-sulfonamide TFA salt], the Emax was determined as 105% and the EC50 was 11700 nM.
